Results on 13 compounds are retold here after patent publication US8263622B2, “Fused-ring derivative and medical application of same” (Kissei Pharmaceutical Co., Ltd., priority 2008, dated 2012).

Assay [1] addresses T1, Xanthine oxidase (from bovine milk, Sigma) (Bos taurus, UniProt P80457).
T1 construct: Xanthine oxidase (from bovine milk, Sigma); purchased Sigma; host or cells: bovine milk
Kind of assay: Xanthine oxidase inhibitory activity. Format: biochemical. The settings on record: xanthine substrate, absorbance at 290 nm, 10 minutes at room temperature. How it is done:
(1) Preparation of Test Compounds
Test compounds were dissolved in DMSO (Wako) at 40 mM concentration and then diluted to intended concentrations with phosphate-buffered saline (PBS).
(2) Method for Measurement
Xanthine oxidase (from bovine milk, Sigma) was prepared with phosphate-buffered saline (PBS) at 0.02 units/mL, and then the solution was added to 96 well plates at 50 μL/well. In addition, test compounds diluted with PBS were added at 50 μL/well. Xanthine (Wako) at 200 μM prepared with PBS was added at 100 μL/well, and the reaction was measured for 10 minutes at room temperature. Absorbance at 290 nm was measured using a microplate reader SpectraMax Plus 384 (Molecular device). The absorbance under a condition without xanthine is 0%, and control without test compounds is 100%. Fifty % inhibitory concentration (IC50) of test compounds was calculated (Table 11). Ex. No. in the table indicates example number.

Another assay deals with T2, human URAT1 (Homo sapiens, UniProt Q96S37).
T2 construct: expressed in transfected cells; host or cells: COS7 cells (RIKEN CELL BANK RCB0539), transient, pcDNA3.1
T2 sequence (Q96S37 1-553): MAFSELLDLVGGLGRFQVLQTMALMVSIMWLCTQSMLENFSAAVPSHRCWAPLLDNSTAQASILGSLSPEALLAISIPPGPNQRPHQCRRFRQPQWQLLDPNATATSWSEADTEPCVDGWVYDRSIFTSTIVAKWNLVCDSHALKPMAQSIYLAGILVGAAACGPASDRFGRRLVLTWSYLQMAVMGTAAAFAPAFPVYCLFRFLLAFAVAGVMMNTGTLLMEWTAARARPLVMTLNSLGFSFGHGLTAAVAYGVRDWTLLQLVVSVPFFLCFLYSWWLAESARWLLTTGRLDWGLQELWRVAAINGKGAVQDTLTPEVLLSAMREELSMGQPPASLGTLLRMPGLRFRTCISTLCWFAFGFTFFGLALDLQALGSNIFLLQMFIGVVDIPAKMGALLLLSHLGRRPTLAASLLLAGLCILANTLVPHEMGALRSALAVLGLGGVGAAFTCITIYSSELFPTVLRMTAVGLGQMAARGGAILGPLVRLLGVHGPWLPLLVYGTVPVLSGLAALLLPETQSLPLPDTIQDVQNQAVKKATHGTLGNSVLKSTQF
Kind of assay: Inhibitory activity of uric acid transport with human URAT1 expressing cells. Format: cell-based. The settings on record: COS-7; concentration of 100 μM; 14C-uric acid uptake (20 μM) in COS7 cells transiently expressing human URAT1, 5 minutes, 37° C.; read-out: Percent inhibition. The method, then:
(1) Preparation of Transiently Human URAT1 Expressing Cells
Full length human URAT1 cDNA (NCBI Accession No. NM_144585) was subcloned into expression vector, pcDNA3.1 (Invitrogen). Human URAT1 expression vector was transfected into COS7 cells (RIKEN CELL BANK RCB0539) using Lipofectamine 2000 (Invitrogen). COS7 cells were seeded in collagen-coated 24 well plates (Japan Becton Dickinson) at 90-95% confluency and cultured in D-MEM culture medium (Invitrogen) containing 10% fetal bovine serum (Sanko Junyaku) for 2 hours at 37° C. under the condition of 5% CO2. For 1 well, 2 μL of Lipofectamine 2000 was diluted in 50 μL of OPTI-MEM (Invitrogen) and allowed to stand at room temperature for 7 minutes (hereinafter referred to as Lipo2000-OPTI). For 1 well, 0.8 μg of human URAT1 expression vector was diluted in 50 μL of OPTI-MEM (Invitrogen) and combined gently with Lipo2000-OPTI. After standing at room temperature for 25 minutes, the mixture was added to COS7 cells at 100 μL/well. Furthermore, COS7 cells were cultured for 2 days at 37° C. under the condition of 5% CO2 and used for measuring inhibitory activity on the uptake.
(2) Preparation of Test Compounds
Test compounds were dissolved in DMSO (Wako) at 10 mM concentration and then diluted to 2 times higher concentration than intended with pre-treatment buffer (125 mM sodium gluconate, 4.8 mM potassium gluconate, 1.2 mM potassium dihydrogen phosphate, 1.2 mM magnesium sulfate, 1.3 mM calcium gluconate, 5.6 mM glucose, 25 mM Hepes, pH 7.4). Pre-treatment buffer without test compounds was used for control. In addition, an equal volume of pre-treatment buffer containing ^14C-labeled uric acid (American Radiolabeled Chemicals, Inc.) was added to test compounds and control, and finally assay buffer including 20 μM uric acid was prepared.
(3) Method for Measurement
All tests were performed on hot-plate at 37° C. Pre-treatment buffer and assay buffer were incubated at 37° C. and then used for assays. Medium was removed from plates, and 700 μL of pre-treatment buffer was added, and the cells were pre-incubated for 10 minutes. After repeating same step, pre-treatment buffer was removed, and assay buffer was added at 400 μL/well. The uptake reaction was carried out for 5 minutes. After terminating the reaction, assay buffer was rapidly removed, and the cells were washed twice with addition of ice-cold pre-treatment buffer at 1.2 mL/well. Then, the cells were lysed by addition of 0.2N sodium hydroxide at 300 μL/well. The lysed solutions were transferred into Picoplate (PerkinElmer), and Microscinti 40 (PerkinElmer) was added at 600 μL/well. After mixing, the radioactivity was counted in a liquid scintillation counter (PerkinElmer). The radioactivity in COS7 cells not transfected with URAT1 expression vector was also counted under the same condition as control. […] As a result, it was shown that all Examples 2, 6, 7, 12, 13, 15, 22 and 31 have over 80% inhibition in a concentration of 100 μM. Percent inhibition (%)=[1−(B−C)/(A−C)]×100 A: Radioactivity in control B: Radioactivity in the case of addition of test compounds C: Radioactivity in COST cells not transfected with URAT1 expression vector

pIC50: −log10 of the molar value. Bounds are passed on as bounds.

T1 sequence (P80457 whole entry): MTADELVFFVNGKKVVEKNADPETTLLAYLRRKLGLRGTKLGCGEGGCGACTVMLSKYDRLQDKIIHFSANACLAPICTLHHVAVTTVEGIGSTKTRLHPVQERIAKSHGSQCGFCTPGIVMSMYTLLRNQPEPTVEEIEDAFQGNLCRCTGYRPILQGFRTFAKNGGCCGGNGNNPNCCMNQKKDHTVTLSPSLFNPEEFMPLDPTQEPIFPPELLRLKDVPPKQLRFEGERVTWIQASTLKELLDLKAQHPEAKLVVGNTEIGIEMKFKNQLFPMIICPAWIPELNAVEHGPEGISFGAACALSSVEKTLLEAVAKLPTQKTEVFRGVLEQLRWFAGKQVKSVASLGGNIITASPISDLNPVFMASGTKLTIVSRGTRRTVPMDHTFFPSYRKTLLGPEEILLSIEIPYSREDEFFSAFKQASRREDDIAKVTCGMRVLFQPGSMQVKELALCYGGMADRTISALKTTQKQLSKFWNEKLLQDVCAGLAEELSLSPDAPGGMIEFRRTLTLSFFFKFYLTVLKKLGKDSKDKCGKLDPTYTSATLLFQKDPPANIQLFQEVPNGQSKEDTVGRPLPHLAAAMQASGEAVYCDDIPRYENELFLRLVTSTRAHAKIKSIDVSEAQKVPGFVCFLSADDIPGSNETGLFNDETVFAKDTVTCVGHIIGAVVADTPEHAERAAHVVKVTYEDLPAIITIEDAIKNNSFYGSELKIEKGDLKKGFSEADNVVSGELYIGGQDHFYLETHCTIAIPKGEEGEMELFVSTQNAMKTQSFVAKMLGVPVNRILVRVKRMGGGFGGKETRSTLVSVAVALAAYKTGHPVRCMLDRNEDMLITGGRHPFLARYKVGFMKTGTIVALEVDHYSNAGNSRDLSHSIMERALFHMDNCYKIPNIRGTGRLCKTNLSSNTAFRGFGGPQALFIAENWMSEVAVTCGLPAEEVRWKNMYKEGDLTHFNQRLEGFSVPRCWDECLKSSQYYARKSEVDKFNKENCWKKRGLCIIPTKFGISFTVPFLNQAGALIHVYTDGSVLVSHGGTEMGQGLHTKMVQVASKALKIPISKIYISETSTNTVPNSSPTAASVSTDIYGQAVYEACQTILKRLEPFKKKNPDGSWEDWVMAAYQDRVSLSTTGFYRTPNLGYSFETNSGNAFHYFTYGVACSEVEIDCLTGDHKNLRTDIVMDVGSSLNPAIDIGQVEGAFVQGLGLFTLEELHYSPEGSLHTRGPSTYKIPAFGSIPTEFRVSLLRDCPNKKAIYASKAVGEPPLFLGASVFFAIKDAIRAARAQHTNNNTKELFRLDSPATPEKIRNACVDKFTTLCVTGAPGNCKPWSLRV

In general, pIC50 refers to −log10 of the IC50, conventionally taken in molar units. High values mean a small IC50, low ones a large IC50. Turning to `N#Cc1cc(-c2cc(C(=O)O)ccn2)cc2ccccc12` [Example 1, 2-(4-Cyanonaphthalene-2-yl)isonicotinic acid], the pIC50 in assay [1] is 7.96.

Usually inhibition stands for the percentage by which the read-out fell short of the control. Consider `N#Cc1cc(-c2cc(C(=O)O)c(O)cn2)cc2ccccc12` [Example 2, 2-(4-Cyanonaphthalene-2-yl)-5-hydroxyisonicotinic acid], for which, in assay [1], the pIC50 was 7.89. Moreover, the inhibition at 100 µM at human URAT1 was over 80%.

Consider `N#Cc1cc(-c2ccc(C(=O)O)cc2)cc2ccccc12` [Example 4, 4-(4-Cyanonaphthalene-2-yl)benzoic acid], for which the pIC50 in assay [1] was 7.70.

Compound `N#Cc1cc(-c2ccc(C(=O)O)cc2)nc2ccccc12` [Example 5, 4-(4-Cyanoquinoline-2-yl)benzoic acid] had a pIC50 in assay [1] of 7.09.

As for `N#Cc1cc(-c2ccc(C(=O)O)c(O)c2)nc2ccccc12` [Example 6, 4-(4-Cyanoquinoline-2-yl)-2-hydroxy-benzoic acid], the pIC50 in assay [1] was 8.10. Moreover, the inhibition at 100 µM on human URAT1 was over 80%.

In assay [1], `Cc1nc(-c2cc(C#N)c3ccccc3c2)sc1C(=O)O` [Example 7, 2-(4-Cyanonaphthalene-2-yl)-4-methylthiazole-5-carboxylic acid] showed a pIC50 of 8.15. Besides, the inhibition at 100 µM at human URAT1 was over 80%.

In assay [1], `Cc1ccc2cc(-c3nc(C)c(C(=O)O)s3)cc(C#N)c2c1` [Example 8, 2-(4-Cyano-6-methylnaphthalene-2-yl)-4-methylthiazole-5-carboxylic acid] gave a pIC50 of 7.96.

In assay [1], `Cc1ccc2c(C#N)cc(-c3nc(C)c(C(=O)O)s3)cc2c1` [Example 9] gave a pIC50 of 7.59.

As for `Cc1nc(-c2cc(C#N)c3ccc(F)cc3c2)sc1C(=O)O` [Example 12], in assay [1], the pIC50 was 8.40. Also, the inhibition at 100 µM at human URAT1 was over 80%.

`Cc1nc(-c2cc(C#N)c3cccc(F)c3c2)sc1C(=O)O` [Example 13]: the pIC50 in assay [1] is 8.10. Besides, the inhibition at 100 µM at human URAT1 was over 80%.

On to `Cc1nc(-c2cc(C#N)c3c(C)ccc(F)c3c2)sc1C(=O)O` [Example 15], for which the pIC50 in assay [1] is 8.15. Besides, the inhibition at 100 µM on human URAT1 is over 80%.

`Cc1nc(-c2cc(C#N)c3c(F)cccc3c2)sc1C(=O)O` [Example 22]: the pIC50 in assay [1] was 8.15. The inhibition at 100 µM at human URAT1 was over 80%.

Turning to `N#Cc1cc(-c2ncc(C(=O)O)s2)cc2ccccc12` [Example 31], the pIC50 in assay [1] was 8.70. In addition, the inhibition at 100 µM on human URAT1 was over 80%.
